From PMC11258689, “A Snake Venom Peptide and Its Derivatives Prevent Aβ42 Aggregation and Eliminate Toxic Aβ42 Aggregates In Vitro” (ACS Chemical Neuroscience, 2024)
Non-standard residues stand in square brackets, D forms with d. Residues, ends and D or L forms follow the SMILES beside them.

Key:
Aβ42 oligomers = experiment: QIAD assay (Aβ42 aggregate size distribution, oligomer elimination); format: biochemical; conditions: 20 μM peptide added to 80 μM Aβ42 (pre-incubated 2 h), 30 min; density gradient, RP-HPLC UV 214 nm; n = 3
Method: In order to evaluate the efficacy of the peptides in eliminating Aβ42 oligomers, QIAD assays were performed.[39] Briefly, lyophilized Aβ42 (80 μM) was incubated for 2 h in sodium phosphate buffer for Aβ42 oligomerization. Then, each peptide (20 μM) was added to the Aβ42 solution and incubated for 30 min. Finally, samples were added on top of an iodixanol density gradient (5–50% (w/v) (OptiPrep, Sigma-Aldrich, Darmstadt, Germany) and centrifuged for 3 h at 4 °C and 259,000 x g (Optima TL-100, Beckman Coulter, Brea, CA, USA). For the sample analysis, 14 fractions (140 μL each) were collected from top to bottom. The top fractions, named fractions 1–2, contained Aβ42-monomers; fractions 4–6 contained the Aβ42-oligomers, which are of special interest; and the bottom fractions 11–14 contained high molecular weight of aggregated Aβ42. Each density gradient fraction was analyzed by Reversed Phase Liquid Chromatography. For this an Agilent 1260 Infinity II (Santa Clara, California, USA) system was equipped with an Agilent Zorbax SB-300 C-8 5 μm, 4.6 × 250 mm Column (Santa Clara, California, USA) and a multi-wavelength detector set to acquire the UV absorbance at 214 nm. H2O + 0.1% trifluoroacetic acid (AppliChem, Darmstadt, Germany) and acetonitrile (Roth, Karlsruhe, Germany) + 0.1% trifluoroacetic acid were used as eluent A and B, respectively. The acquisition method consisted of an initial isocratic step at 15% B, followed by a gradient from 15% B to 45% B in 10 min and another isocratic step at 45% B. The column temperature was set to 80 °C for the entire analysis. This method ensured full separation of the iodixanol density gradient medium and Aβ42 in all fractions. Aβ42 peaks were analyzed and integrated by the Agilent OpenLab 2.5 software. All measurements were performed in triplicate (n = 3), and data are presented as mean ± SM.

Aβ42 aggregates = experiment: sFIDA assay of Aβ42 aggregate elimination; format: biochemical; conditions: n = 3; for sFIDA signal reduction compared with the control: 50 nM peptide, 1 nM Aβ42 aggregates, overnight, room temperature, PBS, TIRFM pixel count
Method: To determine the influence of peptides on Aβ42 aggregates, an sFIDA assay was performed. The principle was previously described.[29] Therefore, we used pretreated 384 glass bottom microtiterplates (Sensoplate plus, Greiner Bio-One GmbH, Frickenhausen, Germany) to immobilize the capture-antibody Nab228 (Sigma-Aldrich, St. Louis, Missouri, USA) in a concentration of 2.5 μg/mL in 0.1 M carbonate buffer (Carl Roth, Karlsruhe, Germany). After an overnight incubation at 4 °C, the plate was washed five times with TBS and blocked with 80 μL of a 0.5% BSA solution in TBS with 0.03% ProClin 300 (Sigma-Aldrich, St. Louis, Mo, USA) for 1.5 h at room temperature.
The influence of 50 nM CDPs on 1 nM Aβ42 aggregates (prepared according to Ref ([70])) in PBS was determined by incubating them overnight at room temperature and 600 rpm. As a control, the same Aβ42 aggregates concentration was incubated without additions of peptides; instead, the buffer was added to contain the same end concentrations. The plate was washed as previously described, and 20 μL each of the peptide solution and a serial dilution of Aβ42 aggregates standards in PBS were added and incubated for 2 h at room temperature.
Afterward, 20 μL of 0.625 μg/mL IC-16 CF633 (Heinrich Heine Universität Düsseldorf, Germany) in TBS with 0.1% BSA was added to each well and incubated for 1 h at room temperature. This red fluorescently labeled detection antibody was labeled with CF633 succinimidyl ester (Sigma-Aldrich, St. Louis, Missouri, USA) after the manufacturer’s protocol. After a washing step to remove the redundant antibodies, 80 μL of TBS containing 0.03% Proclin were added.
By using a total internal reflection microscopy (TIRFM) (Leica Camera AG, Wetzlar, Germany), measurement (excitation: 635 nm, emission filter: 705/22 nm) was carried out with an oil immersion objective in 100× magnifications as previously described by Kass et al. 2022, and for each well, 25 of 14-bit grayscale images were measured with a size of 1000 × 1000 pixel each. […]

Aβ42 = biological target: T1, Aβ42 (Homo sapiens, UniProt P05067); experiment: Thioflavin T (ThT) assay of Aβ42 aggregation; format: biochemical; conditions: 28 μM peptide, 10 μM Aβ42, 5 μM ThT, 24 h, room temperature; mean of n = 3
T1 construct: purchased Bachem, Bubendorf, Switzerland
T1 sequence (P05067 672-713 limits assumed): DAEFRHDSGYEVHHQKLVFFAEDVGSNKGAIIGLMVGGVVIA
Method: To evaluate the ability of the peptides to prevent Aβ42 aggregation, a ThT assay was performed. Aβ42 (10 μM), ThT (5 μM), and the peptides (28 μM) were incubated in 96-well plates for 24 h at room temperature in a plate reader (Clariostar, BMG Labtech, Ortenberg, Germany). During this time, the ThT fluorescence was measured every 6 minutes with an excitation of 440 nm and emission of 490 nm. The data were corrected considering the blank wells (without Aβ42 and the peptides). None of the peptides interact with ThT alone or has autofluorescence properties. All measurements were performed in triplicate (n = 3), and data are presented as mean ± SM.
Different concentrations were titrated to investigate CDP-1 and -2 dose dependency on the Aβ42 aggregate formation, and a ThT assay was performed as described before. The effect of 0, 0.5, 1, 3, 6, 13, and 28 μM peptides was tested against 10 μM Aβ42 over 24 h. All experiments were performed in triplicate (n = 3), and data are presented as mean ± SM.

SH-SY5Y cells = experiment: MTT cell viability assay, SH-SY5Y; format: cell-based, human; conditions: 20 and 40 μM peptide, overnight, n = 3
Method: (§1) The cell viability assay was performed using the reduction of [3-(4,5-dimethylthiazol-2-yl)-2,5-diphenyl tetrazolium bromide-MTT] (Merck, Darmstadt, Germany) to investigate the cytotoxicity of the CDPs against SH-SY5Y (human neuroblastoma) and HEK293 (human embryonic kidney) cells. Both cell lines were purchased from the Leibniz Institute DSMZ-German collection of microorganisms and cell cultures GmbH. HEK293 cells were cultivated in Dulbecco’s modified Eagle’s medium high glucose (Merck, Darmstadt, Germany) containing 2% antibiotic solution of 10 000 units Penicillin, 10 mg streptomycin/ml (Merck, Darmstadt, Germany), and 10% fetal bovine serum (Merck, Darmstadt, Germany) at 37 °C with 5% CO2. […]
(§2) According to the manufacturer’s instructions, cell viability was measured using the Cell Proliferation Kit I (Roche, Basel, Switzerland). The absorbance of the formazan product was determined by measuring the absorption at 570 nm and subtracted from the absorbance at 660 nm.
(§3) The SH-SY5Y cells with a density of 10 000 cells (for HEK293 5000 cells) per well (total volume of 100 μL) were added to each well of a 96-well tissue culture plate (VWR North American) and incubated overnight at 37 °C with 5% CO2. […] Finally, the absorbance was measured at 570 and 660 nm using a CLARIO star plate reader (BMG labtech, Ortenberg, Germany), and the cell viability was calculated using eq 2: [drawing 2] […]

HEK293 cells = experiment: MTT cell viability assay, HEK293; format: cell-based, human; conditions: 20 and 40 μM peptide, overnight, n = 3
Method: as §1, §2, §3

SMILES | Aβ42 in QIAD fraction 6 (oligomers) (Aβ42 oligomers) | sFIDA effect on Aβ42 aggregates (Aβ42 aggregates; Aβ42 aggregates treated with peptide, TIRFM) | ThT signal / Aβ42 aggregation compared to Aβ42 alone (Aβ42) | Aβ42 in QIAD fractions 4–5 (oligomers) (Aβ42 oligomers) | sFIDA signal reduction compared with the control (Aβ42 aggregates) | cytotoxicity in SH-SY5Y cells (SH-SY5Y cells) | cytotoxicity in HEK293 cells (HEK293 cells)
COC(=O)[C@@H](CCCCN)NC(=O)[C@@H](CCSC)NC(=O)[C@@H](CC(=O)O)NC(=O)[C@@H](CS)NC(=O)[C@@H](CCCNC(=N)N)NC(=O)[C@@H](Cc1c[nH]c2ccccc12)NC(=O)[C@@H](CCCNC(=N)N)NC(=O)[C@@H](Cc1c[nH]c2ccccc12)NC(=O)[C@@H](CCCCN)NC(=O)[C@@H](CS)NC(=O)[C@@H](CS)NC(=O)[C@@H](CCCCN)NC(=O)[C@@H](CCCCN)NC(C)=O [CDP-1D] (Ac-[dK][dK][dC][dC][dK][dW][dR][dW][dR][dC][dD][dM][dK]-OMe; N-terminus and C-terminus assumed) | significant reduction | decrease in aggregates | – | – | – | – | –
COC(=O)[C@H](CCCCN)NC(=O)[C@H](CCCCN)NC(=O)[C@H](CS)NC(=O)[C@H](CS)NC(=O)[C@H](CCCCN)NC(=O)[C@H](Cc1c[nH]c2ccccc12)NC(=O)[C@H](CCCNC(=N)N)NC(=O)[C@H](Cc1c[nH]c2ccccc12)NC(=O)[C@H](CCCNC(=N)N)NC(=O)[C@H](CS)NC(=O)[C@H](CC(=O)O)NC(=O)[C@H](CCSC)NC(=O)[C@H](CCCCN)NC(C)=O [CDP-1] (Ac-KMDCRWRWKCCKK-OMe; C-terminus assumed) | – | – | no Aβ42 aggregation was determined | not detected | 61.1% | nontoxic | nontoxic
COC(=O)[C@H](CCCCN)NC(=O)[C@H](CCCCN)NC(=O)[C@H](CO)NC(=O)[C@H](CO)NC(=O)[C@H](CCCCN)NC(=O)[C@H](Cc1c[nH]c2ccccc12)NC(=O)[C@H](CCCNC(=N)N)NC(=O)[C@H](Cc1c[nH]c2ccccc12)NC(=O)[C@H](CCCNC(=N)N)NC(=O)[C@H](CO)NC(=O)[C@H](CC(=O)O)NC(=O)[C@H](CCSC)NC(=O)[C@H](CCCCN)NC(C)=O [CDP-2] (Ac-KMDSRWRWKSSKK-OMe) | – | – | four times smaller | not detected | 95.2% | nontoxic | nontoxic
